Data reported in US5217960A, “Erythromycin derivatives” (priority 1991, dated 1993).
Values after ≈ are worked out from the molar mass of the structure shown. Where two headings read alike, the source gives them in different places.

Columns and labels:
Type in all cases: cell-based
[1] = tested on: STREPTOCOCCUS PYOGENES 930 CONST; test: In vitro antibacterial activity, agar dilution MIC
[2] = tested on: STAPHYLOCOCCUS AUREUS A5177; test: In vitro antibacterial activity, agar dilution MIC; conditions: S. aureus A5177, BHI agar, 35-37° C., 20 to 24 hours, read-out: MIC
[3] = tested on: ESCHERICHIA COLI H560; test: In vitro antibacterial activity, agar dilution MIC
[4] = tested on: ESCHERICHIA COLI DC-2; test: In vitro antibacterial activity, agar dilution MIC; conditions: E. coli DC-2, BHI agar, 35-37° C., 20 to 24 hours, read-out: MIC
[5] = tested on: PSEUDOMONAS CEPACIA 296I; test: In vitro antibacterial activity, agar dilution MIC; conditions: Burkholderia cepacia
[6] = tested on: STAPHYLOCOCCUS AUREUS 642A; test: In vitro antibacterial activity, agar dilution MIC
[7] = tested on: STR[…] 508; test: In vitro antibacterial activity, agar dilution MIC; conditions: Streptococcus agalactiae, 24 h
Description: (§1) Representative compounds of the present invention were assayed in vitro for antibacterial activity as follows: Twelve petri dishes containing successive aqueous dilutions of the test compound mixed with 10 ml of sterilized Brain Heart Infusion (BHI) agar (Difco 0418-01-5) were prepared. Each plate was inoculated with 1:100 (or 1:10 for slow-growing strains, such as Micrococcus and Streptococcus) dilutions of up to 32 different microorganisms, using a Steers replicator block. The inoculated plates were incubated at 35°-37° C. for 20 to 24 hours. In addition, a control plate, using BHI agar containing no test compound, was prepared and incubated at the beginning and end of each test.
(§2) An additional plate containing a compound having known susceptibility patterns for the organisms being tested and belonging to the same antibiotic class as the test compound was also prepared and incubated as a further control, as well as to provide test-to-test comparability. Erythromycin A was used for this purpose.
(§3) After incubation, each disk was read. The minimum inhibitory concentration (MIC) was defined as the lowest concentration of drug yielding no growth, a slight haze, or sparsely isolated colonies on the inoculum spot as compared to the growth control.

[8] = tested on: STR[…] EES61; test: In vitro antibacterial activity, agar dilution MIC; conditions: Streptococcus pyogenes, 24 h
Description: as §1, §2, §3

[9] = tested on: ESCHERICHIA COLI KNK 437; test: microbe, parasite or virus in culture
[10] = tested on: KLEBSIELLA PNEUMONIAE ATCC 8045; test: In vitro antibacterial activity, agar dilution MIC; conditions: ATCC8045, K. pneumoniae ATCC 8045, BHI agar, 35-37° C., 20 to 24 hours, read-out: MIC
[11] = tested on: STAPHYLOCOCCUS AUREUS NCTC 10649; test: In vitro antibacterial activity, agar dilution MIC
[12] = tested on: STREPTOCOCCUS PYOGENES 2548 INDUC; test: In vitro antibacterial activity, agar dilution MIC
[13] = tested on: ESCHERICHIA COLI JUHL; test: microbe, parasite or virus in culture
[14] = tested on: STAPHYLOCOCCUS EPIDERMIDIS 3519; test: microbe, parasite or virus in culture
[15] = tested on: STAPHYLOCOCCUS AUREUS 45; test: In vitro antibacterial activity, agar dilution MIC
[16] = tested on: STAPHYLOCOCCUS AUREUS 1775; test: In vitro antibacterial activity, agar dilution MIC
[17] = tested on: PSEUDOMONAS AERUGINOSA A5007; test: In vitro antibacterial activity, agar dilution MIC; conditions: P. aeruginosa A5007, BHI agar, 35-37° C., 20 to 24 hours
[18] = tested on: PROVIDENCIA STUARTII CMX 640; test: microbe, parasite or virus in culture; conditions: P. stuartii CMX 640, BHI agar, 35-37° C., 20 to 24 hours
[19] = tested on: STAPHYLOCOCCUS AUREUS ATCC 6538P; test: In vitro antibacterial activity, agar dilution MIC; conditions: ATCC6538P, 24 h
[20] = tested on: ENTEROBACTER AEROGENES ATCC 13048; test: In vitro antibacterial activity, agar dilution MIC; conditions: Klebsiella aerogenes, ATCC13048; E. aerogenes ATCC 13048; BHI agar, 35-37° C., 20 to 24 hours; read-out: MIC
[21] = tested on: STREPTOCOCCUS BOVIS A5169; test: In vitro antibacterial activity, agar dilution MIC
[22] = tested on: STAPHYLOCOCCUS AUREUS CMX 553; test: In vitro antibacterial activity, agar dilution MIC; conditions: 24 h
[23] = tested on: ACINETOBACTER CALCOACETICUS CMX 669; test: In vitro antibacterial activity, agar dilution MIC; conditions: A. calcoaceticus CMX 669, BHI agar, 35-37° C., 20 to 24 hours
[24] = tested on: PSEUDOMONAS AERUGINOSA K799/61; test: In vitro antibacterial activity, agar dilution MIC
Description: as §1, §2
(§4) After incubation, each disk was read. The minimum inhibitory concentration (MIC) was defined as the lowest concentration of drug yielding no growth, a slight haze, or sparsely isolated colonies on the inoculum spot as compared to the growth control. The results of this assay, shown below in Tables 1 and 2, support the conclusion that the compounds of the invention are effective antibacterial agents.

[25] = tested on: M[…] ATCC 9341; test: In vitro antibacterial activity, agar dilution MIC; conditions: Micrococcus luteus, ATCC9341, 24 h
Description: as §1, §2, §4

[26] = tested on: EN[…] ATCC 8043; test: In vitro antibacterial activity, agar dilution MIC; conditions: Enterococcus faecium, ATCC8043, 24 h
Description: as §1, §2, §4

[27] = tested on: M[…] ATCC 4698; test: In vitro antibacterial activity, agar dilution MIC; conditions: Micrococcus luteus, ATCC4698, 24 h
Description: as §1, §2, §4

[28] = tested on: ESCHERICHIA COLI SS; test: In vitro antibacterial activity, agar dilution MIC; conditions: E. coli SS, BHI agar, 35-37° C., 20 to 24 hours, read-out: MIC
[29] = tested on: PSEUDOMONAS AERUGINOSA K799/WT; test: In vitro antibacterial activity, agar dilution MIC; conditions: P. aeruginosa K799/WT, BHI agar, 35-37° C., 20 to 24 hours
[30] = tested on: PSEUDOMONAS AERUGINOSA BMH10; test: In vitro antibacterial activity, agar dilution MIC

## CC[C@H]1OC(=O)[C@H](C)[C@@H](O[C@H]2C[C@@](C)(OC)[C@@H](O)[C@H](C)O2)[C@H](C)[C@@H](O[C@@H]2O[C@H](C)C[C@H](N(C)C)[C@H]2O)[C@](C)(O)C[C@@H](C)[C@@H](N(C)C)[C@H](C)[C@@H](O)[C@@]1(O)CN(C)Cc1ccccc1 [Compound 16, (9R)-21-(N-benzyl-N-methylamino)-9-deoxo-9-(N,N-dimethylamino)-erythromycinA]
[1]; 24 h
  MIC: 0.78 µg/mL (≈ 0.884 µM)
[2]
  MIC: > 100 µg/mL
[3]; E. coli H560, BHI agar, 35-37° C., 20 to 24 hours, read-out: MIC
  MIC: 100 µg/mL (≈ 113 µM)
[4]
  MIC: 1.56 µg/mL (≈ 1.77 µM)
[5]; 24 h
  MIC: 12.5 µg/mL (≈ 14.2 µM)
[6]; 24 h
  MIC: 3.1 µg/mL (≈ 3.51 µM)
[7]
  MIC: 0.1 µg/mL (≈ 0.113 µM)
[8]
  MIC: 0.39 µg/mL (≈ 0.442 µM)
[9]; 24 h
  MIC: 50 µg/mL (≈ 56.7 µM)
[10]
  MIC: > 100 µg/mL
[11]; NCTC10649, 24 h
  MIC: 12.5 µg/mL (≈ 14.2 µM)
[12]; S. pyogenes 2548 INDUC, BHI agar, 35-37° C., 20 to 24 hours, read-out: MIC
  MIC: 50 µg/mL (≈ 56.7 µM)
[13]; 24 h
  MIC: 12.5 µg/mL (≈ 14.2 µM)
[14]; S. epidermidis 3519, BHI agar, 35-37° C., 20 to 24 hours, read-out: MIC
  MIC: > 100 µg/mL
[15]; 24 h
  MIC: 6.2 µg/mL (≈ 7.03 µM)
[16]; 24 h
  MIC: 12.5 µg/mL (≈ 14.2 µM)
[17]
  MIC: 100 µg/mL (≈ 113 µM)
[18]
  MIC: 100 µg/mL (≈ 113 µM)
[19]
  MIC: 12.5 µg/mL (≈ 14.2 µM)
[20]
  MIC: 100 µg/mL (≈ 113 µM)
[21]; S. bovis A5169, BHI agar, 35-37° C., 20 to 24 hours, read-out: MIC
  MIC: 1.56 µg/mL (≈ 1.77 µM)
[22]
  MIC: 12.5 µg/mL (≈ 14.2 µM)
[23]
  MIC: > 100 µg/mL
[24]; 24 h
  MIC: > 100 µg/mL
[25]
  MIC: 6.2 µg/mL (≈ 7.03 µM)
[26]
  MIC: 3.1 µg/mL (≈ 3.51 µM)
[27]
  MIC: 0.39 µg/mL (≈ 0.442 µM)
[28]
  MIC: 100 µg/mL (≈ 113 µM)
[29]
  MIC: > 100 µg/mL
[30]; P. aeruginosa BMH10, BHI agar, 35-37° C., 20 to 24 hours, read-out: MIC
  MIC: > 100 µg/mL

## CC[C@H]1OC(=O)[C@H](C)[C@@H](O[C@H]2C[C@@](C)(OC)[C@@H](O)[C@H](C)O2)[C@H](C)[C@@H](O[C@@H]2O[C@H](C)C[C@H](N(C)C)[C@H]2O)[C@](C)(O)C[C@@H](C)[C@@H](N(C)C)[C@H](C)[C@@H](O)[C@@]12CO2 [Compound 8, (9R)-9-deoxo-9-(N,N-dimethylamino)-12,21-epoxyerythromycin A]
[1]; S. pyogenes 930 CONST, BHI agar, 35-37° C., 20 to 24 hours, read-out: MIC
  MIC: > 100 µg/mL
[2]
  MIC: 50 µg/mL (≈ 65.7 µM)
[3]; 24 h
  MIC: 25 µg/mL (≈ 32.9 µM)
[4]
  MIC: 50 µg/mL (≈ 65.7 µM)
[5]; P. cepacia 296I, BHI agar, 35-37° C., 20 to 24 hours, read-out: MIC
  MIC: > 100 µg/mL
[6]; S. aureus 642A, BHI agar, 35-37° C., 20 to 24 hours, read-out: MIC
  MIC: 1.56 µg/mL (≈ 2.05 µM)
[9]; E. coli KNK 437, BHI agar, 35-37° C., 20 to 24 hours
  MIC: 50 µg/mL (≈ 65.7 µM)
[10]
  MIC: 100 µg/mL (≈ 131 µM)
[11]; NCTC10649, S. aureus NCTC 10649, BHI agar, 35-37° C., 20 to 24 hours, read-out: MIC
  MIC: 0.78 µg/mL (≈ 1.02 µM)
[12]; 24 h
  MIC: 6.2 µg/mL (≈ 8.15 µM)
[13]; E. coli JUHL, BHI agar, 35-37° C., 20 to 24 hours, read-out: MIC
  MIC: 100 µg/mL (≈ 131 µM)
[14]; 24 h
  MIC: 0.39 µg/mL (≈ 0.512 µM)
[15]; S. aureus 45, BHI agar, 35-37° C., 20 to 24 hours, read-out: MIC
  MIC: 0.78 µg/mL (≈ 1.02 µM)
[16]; S. aureus 1775, BHI agar, 35-37° C., 20 to 24 hours, read-out: MIC
  MIC: > 100 µg/mL
[17]
  MIC: > 100 µg/mL
[18]
  MIC: > 100 µg/mL
[19]
  MIC: 0.78 µg/mL (≈ 1.02 µM)
[20]
  MIC: > 100 µg/mL
[21]; 24 h
  MIC: 0.02 µg/mL (≈ 0.0263 µM)
[23]
  MIC: 12.5 µg/mL (≈ 16.4 µM)
[24]; P. aeruginosa K799/61, BHI agar, 35-37° C., 20 to 24 hours, read-out: MIC
  MIC: 12.5 µg/mL (≈ 16.4 µM)
[25]
  MIC: 0.1 µg/mL (≈ 0.131 µM)
[26]
  MIC: 0.02 µg/mL (≈ 0.0263 µM)
[27]
  MIC: 0.1 µg/mL (≈ 0.131 µM)
[28]
  MIC: 0.39 µg/mL (≈ 0.512 µM)
[29]
  MIC: > 100 µg/mL
[30]; 24 h
  MIC: > 100 µg/mL
